Reference: US20260159474A1, “Aminoindane Compounds and Compositions and Methods of Their Therapeutic Use” (Solvonis Therapeutics Ireland Holdings Limited, priority 2021, published 2026)

Target: T1, CYP2C8 (Homo sapiens, UniProt P10632)
T1 construct: purchased Life Technologies PV6138; host or cells: Baculosomes
T1 sequence (P10632 1-490): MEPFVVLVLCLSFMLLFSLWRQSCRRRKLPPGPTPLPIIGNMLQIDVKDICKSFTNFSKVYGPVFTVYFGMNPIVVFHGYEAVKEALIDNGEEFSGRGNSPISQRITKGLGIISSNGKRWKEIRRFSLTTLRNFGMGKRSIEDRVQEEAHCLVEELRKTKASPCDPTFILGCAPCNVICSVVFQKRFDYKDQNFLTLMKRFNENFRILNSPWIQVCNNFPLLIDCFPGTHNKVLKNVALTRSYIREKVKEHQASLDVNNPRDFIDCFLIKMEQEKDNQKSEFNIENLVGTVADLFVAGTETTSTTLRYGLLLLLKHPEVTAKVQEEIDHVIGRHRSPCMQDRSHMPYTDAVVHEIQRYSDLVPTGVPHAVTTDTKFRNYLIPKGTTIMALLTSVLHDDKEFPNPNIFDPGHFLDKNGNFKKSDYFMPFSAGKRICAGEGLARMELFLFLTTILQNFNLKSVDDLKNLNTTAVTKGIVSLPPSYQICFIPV
Assay: CYP450 inhibition, fluorescent probe substrate
Assay type: in vitro ADME
Settings: not given
Description: (§1) Methods: Recombinant human CYP450 isoenzymes were used to metabolize pro-fluorescent probe substrates to fluorescent products. IC50 values determined from the effect of test compounds on the metabolism of these probe substrates were then used to determine inhibitory potency against CYP450 isoforms. The chemical reagents included:
(§2) The test system was based on a three-step procedure with a “mix and read” format, where reaction and reading were performed at 37° C. The assays described herein measure in vitro inhibitory effects (pIC50) of compounds on the human P450 isoforms (1A2, 2B6, 2C8, 2C9, 2C19, 2D6, 3A4) expressed in recombinant microsomes. Pro-fluorescent probe substrates were metabolized to fluorescent products by the enzymes. Fluorescence was measured in kinetic mode (1 read/minutes for 10 minutes), and the fluorescence rate was calculated.
(§3) Inhibition of the fluorescent signal resulting from P450 activation indicated inhibitory activity and facilitated calculation of the compound pIC50. A quality check was included in each compound plate, wherein the signal window was monitored by performing Z′ calculations ([…] ) and the antagonist potency of internal standards was within the pIC50±2SD range. Concentration response curves (CRCs) of compounds were run on two different test occasions (n 2) by preparing serial dilutions from the same compound stock solution.
(§4) To prepare the compound plate, test compounds serial dilutions 1 to 3 were performed from a 10 mM stock solution in DMSO by Biomek FX to generate 10 point CRC with the highest concentrations in columns 3 and 13.
(§5) 100% DMSO was placed in columns 1 and 2 and used for assay low controls. CYP inhibitor (10 mM miconazole solution in DMSO) was placed in columns 23 and 24 and served as an assay high controls. 1 μL copy plates were then stamped into V-bottom drug plates at a concentration that is 200 fold the final assay concentration. The copy plates were diluted prior to the experiment with assay buffer to reach 4 times the final assay concentration (2% w/v DMSO).
(§6) A reference compound (e.g., miconazole) was included in each compound plate in row A, column 3 and 13. The reference compound was diluted and stamped together with test compounds. The final concentrations of the 10 point CRCs of test compounds in the assay plate were 5.00E-05; 1.67E-05; 5.56E-06; 1.85E-06; 6.17E-07; 2.06E-07; 6.86E-08; 2.29E-08; 7.62E-09 and 2.54E-09, respectively. All solutions were prepared immediately before the assay.
(§7) The CYP3A4 and CYP2C8 were assayed using the Vivid CYP3A4 Baculosomes, CYP2C8 Baculosomes and Vivid DBOMF Substrate (Life Technologies, cat. P2377, PV6138 and P2974 respectively), while 2B6 is tested by Vivid CYP2B6 Baculosomes and Vivid BOMCC Substrate (Life Technologies, cat. P3028 and P2975). Test compounds were prepared as specified above.
(§8) The assay plate was prepared by preparing pre-mix by diluting P450 Baculosomes Plus Reagent and Vivid Regeneration System in 1× Vivid CYP450 Reaction Buffer (Potassium Phosphate Buffer, 100 mM, pH 8.0). Briefly, 8 μL/ml of P450 Baculosomes Plus Reagent and 16 μL/ml of Vivid Regeneration System were added to achieve the appropriate final concentrations and then mixed by inversion. 30 μL of pre-mix were dispensed into each well of a black, 384-well plate.
(§9) Next, 10 μL/well from the compound plate was added and incubated for 10 minutes at 37° C. on a plate shaker, while a mixture of Vivid Substrate and Vivid NADP+ in Vivid CYP450 Reaction Buffer was prepared. The reaction was initiated by adding 10 μL/well of the Vivid Substrate and NADP+ mixture, before transferring the plate into the fluorescent plate reader (immediately, within 2 minutes), and fluorescence was monitored every minute for 10 minutes according to the specific protocol.
(§10) Regarding data analysis, inhibition is expressed as a percentage. […] Curve fitting and pIC50 estimations are carried out using a four-parameter logistic model in Morphit.

Row | SMILES | IC50 [µM]
1 | COc1ccc2c(c1)CC(N)C2 (stereo not drawn) [MEAI, 5-methoxy-2-aminoindane] | > 50
2 | COc1cc2c(cc1C)CC(N)C2 (stereo not drawn) [MMAI, 5-methoxy-6-methyl-2-aminoindane] | > 50

Same assay, conditions: recombinant human isoenzyme, n=2; read-out: Inhibition of CYP2C8, IC50

Row | SMILES | IC50 [µM]
3 | CNC(C)Cc1ccc2c(c1)OCO2 (stereo not drawn) [MDMA] | > 50
4 | COC(=O)c1ccc2c(c1)CC(N)C2 (stereo not drawn) [CMP-405, 2-aminoindane-5-methylcarboxylate] | > 50
5 | COC(=O)c1cc2c(cc1OC)CC(N)C2 (stereo not drawn) [CMP-401] | > 50
6 | COC(=O)COc1ccc2c(c1)CC(N)C2 (stereo not drawn) [CMP-402] | > 50

Target: T2, CYP2B6 (Homo sapiens, UniProt P20813)
T2 construct: purchased Life Technologies P3028; host or cells: Baculosomes
T2 sequence (P20813 1-491): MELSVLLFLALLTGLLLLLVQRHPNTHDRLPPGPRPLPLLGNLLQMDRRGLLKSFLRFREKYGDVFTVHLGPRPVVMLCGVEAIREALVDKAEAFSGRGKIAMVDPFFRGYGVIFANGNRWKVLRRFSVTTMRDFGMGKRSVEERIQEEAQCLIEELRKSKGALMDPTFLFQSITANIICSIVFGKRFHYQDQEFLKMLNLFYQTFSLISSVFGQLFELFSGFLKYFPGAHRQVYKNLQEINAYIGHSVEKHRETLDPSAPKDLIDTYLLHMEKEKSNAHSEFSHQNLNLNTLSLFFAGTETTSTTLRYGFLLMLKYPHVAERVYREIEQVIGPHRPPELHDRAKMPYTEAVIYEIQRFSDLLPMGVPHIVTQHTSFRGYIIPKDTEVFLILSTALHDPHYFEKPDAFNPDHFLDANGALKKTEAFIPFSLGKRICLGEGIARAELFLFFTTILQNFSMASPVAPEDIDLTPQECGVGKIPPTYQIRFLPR
Assay: CYP450 inhibition, fluorescent probe substrate
Assay type: in vitro ADME
Settings: not given
Description: as §1, §2, §3, §4, §5, §6, §7, §8, §9, §10

Row | SMILES | IC50 [µM]
7 | COc1ccc2c(c1)CC(N)C2 (stereo not drawn) [MEAI, 5-methoxy-2-aminoindane] | > 50
8 | COc1cc2c(cc1C)CC(N)C2 (stereo not drawn) [MMAI, 5-methoxy-6-methyl-2-aminoindane] | > 50

Same assay, conditions: recombinant human isoenzyme, n=2; read-out: Inhibition of CYP2B6, IC50

Row | SMILES | IC50 [µM]
9 | CNC(C)Cc1ccc2c(c1)OCO2 (stereo not drawn) [MDMA] | > 50
10 | COC(=O)c1ccc2c(c1)CC(N)C2 (stereo not drawn) [CMP-405, 2-aminoindane-5-methylcarboxylate] | > 50
11 | COC(=O)c1cc2c(cc1OC)CC(N)C2 (stereo not drawn) [CMP-401] | > 50
12 | COC(=O)COc1ccc2c(c1)CC(N)C2 (stereo not drawn) [CMP-402] | > 50
